Measured values from patent publication US5569649A, “Anti-inflammatory treatment method” (Phytopharm (NA) N.V., priority 1994, dated 1996).
“Also recorded” adds a separate entry of the source.

Tests used:
[1] = Hypoxoside metabolites from urine after oral hypoxoside (HPLC); type: in vivo, human; conditions: urine over 24 h after oral hypoxoside 1 g
Procedure: Example 7 describes the characterization of the rooperol metabolites which were excreted in the urine of the same subject. Urine from the same volunteer as above was collected over 24 hours following administration of the hypoxoside. The collected sample was filtered and purified by passage through a column bed of C18-bonded silica.
The urine from the volunteer in Example 6 was collected over the first 24 hours following administration of hypoxoside and then processed as follows. C18-bonded silica sorbent material (200 g, 40 μm) was pre-treated with methanol and water via a column bed. Filtered urine (5 l) was passed through the sorbent bed, followed by elution in sequence with water (400 ml), aqueous methanol (10% v/v, 400 ml), aqueous methanol (30% v/v, 800 ml) and finally with methanol (400 ml) and water (400 ml). The aqueous methanol fraction (30% v/v, 800 ml) was diluted with water (1600 ml) and again passed through the sorbent bed which was then eluted with water (400 ml) and finally with methanol (400 ml). The final methanol solution was evaporated under vacuum at 50° C. to an aqueous residue which was lyophilized to yield 1 g of a mixture of hypoxoside metabolites and endogenous urine components.
A suitable volume of filtered aqueous solution of this residue (10 mg/ml) was injected onto the in-line pre-column of the analytical HPLC system (Example 5) such that 3 fractions designated A, B, and C having the same retention times as the corresponding peaks observed in serum (Example 6) were collected at the column outlet (see FIG. 4). These fractions were rendered free of mobile phase buffer salts by standard reverse phase sorption technique and lyophilized to dryness.

[2] = HPLC of fecal specimen after oral hypoxoside; type: in vivo, human; conditions: after oral hypoxoside 1 g
Procedure: In addition, a fecal specimen was also obtained from the subject and, following extraction, was analyzed by HPLC as above (FIG. 5).

[3] = Rooperol metabolites in serum after oral hypoxoside (HPLC); type: in vivo, human; conditions: for presence in serum (HPLC peak): 2 h after oral hypoxoside 1 g, one human volunteer
Procedure: The analytical column (4.6×250 mm) was packed with end-capped C8-bonded silica of 5 μm regular particle size (Whatman, Maidstone, England), while a guard column (2.1×75 mm) was packed with pellicular C18-bonded silica (Whatman). An in-line extraction pre-column (2.1×30 mm) was packed with preparative grade C18-bonded silica, 40 μm particle size (Analytichem International, Harbor City, Calif.).
Operating conditions involved a linear solvent gradient programmed at a flow rate of 1.5 ml/min starting with mobile phase A (0.05M KH2 PO4) to which 10% mobile phase B (acetonitrile-isopropanol, 80:20 v/v) was added after 0.01 min. This mixture was maintained for 1 minute after which a linear gradient of mobile phases A and B was begun, ending at 70% B after 16 minutes. The column temperature was maintained at 50° C.
The in-line extraction pre-column was loaded with sample (dissolved in 50 μl ethanol or in up to 200 μl of mobile phase A in the case of purified compounds; or a 200 μl aliquot of serum or urine from a human subject) and made up to 500 μl with an aqueous solution containing 8M guanidinium chloride and 1M ammonium sulfate. Blood samples were first converted to sera prior to analysis. The extraction column was flushed before and after sample introduction with 500 μl of aqueous 0.5M ammonium sulfate. The solutes trapped on the in-line extraction column were then eluted onto the analytical column by mobile phase after column switching and initiation of the analysis.
The detector was programmed to monitor the eluant at 260 nm and also to record absorption spectra from 200-400 nm.

[4] = Susceptibility to air oxidation; type: physicochemical
[5] = test system: TNF-α production by lipopolysaccharide-stimulated human peripheral blood mononuclear cells; experiment: Inhibition of TNF-α production by LPS-stimulated human PBMCs (ELISA); type: cell-based; conditions: for inhibition of TNF-α production, in words: LPS-stimulated human PBMCs, 1-10 μM rooperol
Procedure: (§1) In the study detailed in Example 4, cultured PBMCs enriched in monocytes were stimulated with lipopolysaccharide (20 μg/ml) in the presence and absence of rooperol at concentrations of 1-10 μM. After overnight incubation, the cells were collected and lysed, and the concentrations of TNF-α and IL-1β were measured by ELISA.
(§2) Peripheral blood mononuclear cells (PBMs) from normal human donors were separated on a Ficoll-Paque gradient and enriched in monocytes by adherence. PBMs were cultured in 12-well plates (2×10^6 cells/ml/well) in RPMI 1640 supplemented with 5% fetal calf serum.
(§3) Cultures were stimulated with lipopolysaccharide (LPS, 20 ug/ml), with or without rooperol at concentrations of 1, 2, 5, and 10 μM, and incubated overnight in 5% CO2. The cells were pelleted, resuspended in RPMI medium, and freeze-thawed five times to produce lysates. All samples were stored at -20° C. until cytokine concentrations were determined by commercial ELISA assays.

[6] = Phase I dosing: hypoxoside and metabolites in serum; type: in vivo; conditions: oral hypoxoside preparation 1.6, 2.4 and 3.2 g, 20 human subjects
From the text: In a Phase I dose-ranging and toxicity study, 20 human subjects were given oral doses of a hypoxoside preparation obtained by the methanol extraction procedure described in Example 1. The dosages were 1.6, 2.4, and 3.2 g. Following administration of the hypoxoside preparation, blood samples were collected periodically from the subjects for measurement of hypoxoside and its metabolites. The samples were converted to sera and processed as described in Example 5. The only hypoxoside/rooperol compounds detected were the sulfate and glucuronide metabolites of rooperol noted in Examples 6 and 7.

[7] = test system: IL-1β production by lipopolysaccharide-stimulated human peripheral blood mononuclear cells; experiment: Inhibition of IL-1β production by LPS-stimulated human PBMCs (ELISA); type: cell-based; conditions: for inhibition of IL-1β production, in words: activated human mononuclear cells, 1-10 μM rooperol
Procedure: as §1, §2, §3

[8] = Anti-inflammatory activity (general statement)
[9] = Pharmacokinetics of hypoxoside metabolites, multiple-dose study; type: in vivo, human; conditions: 800 mg H. rooperii methanol-extract 3 times daily for 9 days
Procedure: In a random, multiple-dose study, 6 subjects received 800 mg of H. rooperii methanol-extract 3 times daily for 9 days, and blood samples were collected daily for 12 days (with the exception that no samples were collected on day 11).

| SMILES | presence in urine (HPLC peak) [1] | presence in fecal specimen (HPLC peak) [2] | presence in serum (HPLC peak) [3] | susceptibility to air oxidation [4] | inhibition of TNF-α production ([5]; 10 μM rooperol, LPS 20 μg/ml) | IC50 ([5]; Homo sapiens, PBMC, LPS 20 μg/ml, overnight incubation, FIG. 2A, read-out: half-maximal inhibition of TNF-α production) [µM] | inhibition of TNF-α production, in words [5] | detection in serum [6] | IC50 ([7]; Homo sapiens, PBMC, LPS 20 μg/ml, overnight incubation, FIG. 2B, read-out: half-maximal inhibition of IL-1β production) [µM] | inhibition of IL-1β production, in words [7] | anti-inflammatory activity [8] | relative abundance of metabolite in serum [9] | toxicity of metabolites, in words ([3]; oral hypoxoside, humans) | uptake into the bloodstream ([3]; oral hypoxoside, humans) |
| --- | --- | --- | --- | --- | --- | --- | --- | --- | --- | --- | --- | --- | --- | --- |
| Oc1ccc(C#CC/C=C/c2ccc(O)c(O)c2)cc1O [rooperol] | None of the other urinary peaks corresponded to rooperol or hypoxoside | Only one major peak was observed, with a retention time corresponding to that of rooperol | None of these peaks corresponded to rooperol or hypoxoside | susceptible to air oxidation | nearly complete inhibition | 1 to 2 | dose-dependent inhibition; also recorded: potent inhibitor | Neither hypoxoside nor rooperol could be detected | 1 to 2 | dose-dependent inhibition; also recorded: potent inhibitor | significant anti-inflammatory activity | – | – | – |
| O=C(O)[C@H]1O[C@@H](Oc2ccc(C#CC/C=C/c3ccc(O[C@@H]4O[C@H](C(=O)O)[C@@H](O)[C@H](O)[C@H]4O)c(O)c3)cc2O)[C@H](O)[C@@H](O)[C@@H]1O [A, rooperol 4,4'-diglucuronide] | found in the urine sample | – | appearance of three new peaks | – | – | – | – | – | – | – | – | minor metabolites | – | – |
| OC[C@H]1O[C@@H](Oc2ccc(C#CC/C=C/c3ccc(O[C@@H]4O[C@H](CO)[C@@H](O)[C@H](O)[C@H]4O)c(O)c3)cc2O)[C@H](O)[C@@H](O)[C@@H]1O [hypoxoside] | None of the other urinary peaks corresponded to rooperol or hypoxoside | No peaks were detectable | None of these peaks corresponded to rooperol or hypoxoside | – | – | – | inactive | Neither hypoxoside nor rooperol could be detected | – | inactive | – | – | metabolized to non-toxic derivatives | taken up rapidly into the bloodstream |
| O=S(=O)(O)Oc1ccc(C#CC/C=C/c2ccc(OS(=O)(=O)O)c(O)c2)cc1O [C, rooperol 4,4'-disulfate] | found in the urine sample | – | appearance of three new peaks | – | – | – | – | – | – | – | – | minor metabolites | – | – |
